The values that follow are results of earlier work, collected in US9084755B2, “Method for extracting and separating ginkgolides” (CHENGDU BAIYU TECHNOLOGY PHARMACY CO., LTD, priority 2012, dated 2015).

Molecules are shown by their SMILES.

For this data set, the target named is platelet-activating factor PAF receptor (Homo sapiens, UniProt P25105). The note with it: compared among ginkgolides.
Chain of platelet-activating factor PAF receptor (P25105 whole entry): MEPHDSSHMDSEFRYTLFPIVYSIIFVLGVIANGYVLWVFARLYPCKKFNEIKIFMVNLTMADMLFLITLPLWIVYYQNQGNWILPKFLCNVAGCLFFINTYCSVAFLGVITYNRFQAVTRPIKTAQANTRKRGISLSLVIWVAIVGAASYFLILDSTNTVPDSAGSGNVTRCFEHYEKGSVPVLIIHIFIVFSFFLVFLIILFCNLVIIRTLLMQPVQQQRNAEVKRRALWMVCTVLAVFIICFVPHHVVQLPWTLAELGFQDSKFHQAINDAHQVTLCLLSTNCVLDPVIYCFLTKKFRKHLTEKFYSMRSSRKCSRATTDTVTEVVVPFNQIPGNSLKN

`C[C@@H]1C(=O)O[C@H]2[C@H](O)C34[C@H]5C[C@@H](C(C)(C)C)[C@]36[C@@H](OC(=O)[C@@H]6O)O[C@@]4(C(=O)O5)[C@@]12O` (stereo partly shown) [ginkgolide B]: the “antagonism to the PAF” value is on record as “strongest”.
